Assay results as given in ChEMBL document CHEMBL3593243, “Discovery of novel, potent, selective and cellular active ADC type PTP1B inhibitors via fragment-docking-oriented de novel design” (Bioorg Med Chem, 2015).
pIC50, pKi: −log10 of the molar value.

How the values were obtained:
[1] = target: T1, Tyrosine-protein phosphatase non-receptor type 1 (Homo sapiens, UniProt P18031); test: Inhibition of recombinant PTP1B (unknown origin) assessed as pNPP hydrolysis after 30 mins
T1 sequence (P18031 whole entry): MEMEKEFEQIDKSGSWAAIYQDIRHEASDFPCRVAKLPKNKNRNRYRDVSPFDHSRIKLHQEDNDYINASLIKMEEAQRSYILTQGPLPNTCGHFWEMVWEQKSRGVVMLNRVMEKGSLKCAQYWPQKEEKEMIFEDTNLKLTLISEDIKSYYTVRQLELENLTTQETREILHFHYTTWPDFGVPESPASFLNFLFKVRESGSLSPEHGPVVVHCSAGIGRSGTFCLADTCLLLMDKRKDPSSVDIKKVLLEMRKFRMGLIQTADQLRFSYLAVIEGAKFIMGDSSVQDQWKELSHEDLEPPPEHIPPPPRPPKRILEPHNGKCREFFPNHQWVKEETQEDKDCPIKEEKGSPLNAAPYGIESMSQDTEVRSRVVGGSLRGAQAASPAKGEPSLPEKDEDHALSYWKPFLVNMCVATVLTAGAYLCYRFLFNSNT

[2] = target: T1, Tyrosine-protein phosphatase non-receptor type 1; test: Inhibition of human PTP1B catalytic domain expressed in Escherichia coli assessed as pNPP hydrolysis measured every 30 secs for 15 mins
[3] = target: T2, Tyrosine-protein phosphatase non-receptor type 2 (Homo sapiens, UniProt P17706); test: Inhibition of TCPTP (unknown origin) assessed as pNPP hydrolysis after 30 mins
T2 sequence (P17706 whole entry): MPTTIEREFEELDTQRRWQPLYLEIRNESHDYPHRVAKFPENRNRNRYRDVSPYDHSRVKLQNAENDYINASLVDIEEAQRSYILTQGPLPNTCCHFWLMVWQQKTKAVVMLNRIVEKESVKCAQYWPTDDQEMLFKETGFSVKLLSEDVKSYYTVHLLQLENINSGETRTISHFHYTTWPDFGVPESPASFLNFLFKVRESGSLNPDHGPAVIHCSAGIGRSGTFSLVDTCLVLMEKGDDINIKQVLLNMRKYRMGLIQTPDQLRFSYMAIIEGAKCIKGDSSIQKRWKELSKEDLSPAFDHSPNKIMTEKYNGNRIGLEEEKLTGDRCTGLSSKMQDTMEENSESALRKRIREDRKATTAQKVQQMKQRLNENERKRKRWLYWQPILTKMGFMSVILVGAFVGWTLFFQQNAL

[4] = target: Tyrosine-protein phosphatase non-receptor type 6 (Homo sapiens, UniProt P29350); test: Inhibition of SHP1 (unknown origin) using pNPP as substrate
Chain of Tyrosine-protein phosphatase non-receptor type 6 (P29350 whole entry): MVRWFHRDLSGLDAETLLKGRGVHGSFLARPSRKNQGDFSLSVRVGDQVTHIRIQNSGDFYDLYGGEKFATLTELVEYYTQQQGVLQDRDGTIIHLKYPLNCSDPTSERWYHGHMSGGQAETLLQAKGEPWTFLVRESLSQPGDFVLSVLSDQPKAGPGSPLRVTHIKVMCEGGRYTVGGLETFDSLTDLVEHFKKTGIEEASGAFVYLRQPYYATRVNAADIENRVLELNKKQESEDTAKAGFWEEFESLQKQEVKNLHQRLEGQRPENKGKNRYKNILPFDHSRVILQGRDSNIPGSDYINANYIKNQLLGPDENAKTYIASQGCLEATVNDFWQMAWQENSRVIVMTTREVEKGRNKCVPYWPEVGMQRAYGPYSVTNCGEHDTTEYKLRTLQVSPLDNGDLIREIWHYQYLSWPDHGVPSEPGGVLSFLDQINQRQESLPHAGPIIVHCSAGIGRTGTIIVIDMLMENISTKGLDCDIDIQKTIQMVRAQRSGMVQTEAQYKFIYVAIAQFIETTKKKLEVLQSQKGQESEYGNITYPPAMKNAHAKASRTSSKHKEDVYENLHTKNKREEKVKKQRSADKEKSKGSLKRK

| pIC50 [1] | pKi [2] | pIC50 [3] | pIC50 [4] | SMILES |
| --- | --- | --- | --- | --- |
| 6.69 | – | – | – | CCOc1cc(NS(C)(=O)=O)c(OCC)cc1CNC(=O)Nc1ccc(OC)c(OC)c1 |
| 5.56 | – | – | – | CCOc1cc(NS(C)(=O)=O)c(OCC)cc1CNC(=O)Nc1cccc(OC)c1 |
| 6.12 | – | – | – | CCOc1cc(NS(C)(=O)=O)c(OCC)cc1CNC(=O)NCc1ccccc1 |
| – | 8.77 | – | – | NC(=O)[C@H](Cc1ccc(C(F)(F)P(=O)(O)O)cc1)NC(=O)[C@H](Cc1ccccc1)NC(=O)Cc1ccc(C(F)(F)P(=O)(O)O)cc1 |
| 6.27 | – | – | – | CCOc1cc(NS(C)(=O)=O)c(OCC)cc1CNC(=O)Nc1ccccc1 |
| 6.51 | – | 5.28 | – | CCOc1cc(NS(C)(=O)=O)c(OCC)cc1CNC(=O)Nc1ccc(C)cc1 |
| 6.67 | – | 5.87 | 5.64 | CCOc1cc(NS(C)(=O)=O)c(OCC)cc1CNC(=O)Nc1ccc(Br)cc1 |
| 6.69 | – | – | 5.04 | CCOc1cc(NS(C)(=O)=O)c(OCC)cc1CNC(=O)Nc1ccc(OC)cc1 |
